Laboratory results reported in ChEMBL document CHEMBL3046370, “Synthesis and biological evaluation of , -unsaturated ketone as potential antifungal agents” (2009).
≈ marks a conversion by molar mass, not a printed value.

How the values were obtained:
Candida albicans [1] = experiment: Antifungal activity against fluconazole-resistant Candida albicans NCIM 3446 after 48 hr by broth dilution method; type: functional; conditions: NCIM 3446, 48 h
Candida albicans [2] = experiment: Antifungal activity against fluconazole-sensitive Candida albicans ATCC 10231 after 48 hr by broth dilution method; type: functional; conditions: ATCC 10231, 48 h

Row | Structure (SMILES) | MIC (Candida albicans [1]) [µg/mL] | MIC (Candida albicans [2]) [µg/mL]
1 | CSc1ccc(/C=C/C(=O)c2ccc(Br)cc2)cc1 | 100 (≈ 300 µM) | 40 (≈ 120 µM)
2 | COc1ccc(C(=O)/C=C/c2ccc(OC)c(OC)c2)cc1 | 10 (≈ 33.5 µM) | 20 (≈ 67 µM)
3 | CSc1ccc(/C=C/C(=O)c2ccc(Br)s2)cc1 | 50 (≈ 147 µM) | 40 (≈ 118 µM)
4 | CSc1ccc(/C=C/C(=O)c2cccc(O)c2)cc1 | 40 (≈ 148 µM) | 20 (≈ 74 µM)
5 | COc1ccc(/C=C/C(=O)c2cccs2)cc1 | 20 (≈ 81.9 µM) | 20 (≈ 81.9 µM)
6 | O=C(/C=C/c1ccc(-c2ccccc2)cc1)c1ccc(Br)s1 | 250 (≈ 677 µM) | 100 (≈ 271 µM)
7 | CSc1ccc(/C=C/C(=O)c2ccccc2)cc1 | 40 (≈ 157 µM) | 20 (≈ 78.6 µM)
8 | CSc1ccc(/C=C/C(=O)c2ccc(F)cc2)cc1 | 8 (≈ 29.4 µM) | 5 (≈ 18.4 µM)
9 | CSc1ccc(/C=C/C(=O)c2ccc(Cl)cc2Cl)cc1 | 200 (≈ 619 µM) | 50 (≈ 155 µM)
10 | CSc1ccc(/C=C/C(=O)c2ccc([N+](=O)[O-])cc2)cc1 | 100 (≈ 334 µM) | 50 (≈ 167 µM)
11 | CSc1ccc(/C=C/C(=O)c2cccs2)cc1 | 5 (≈ 19.2 µM) | 5 (≈ 19.2 µM)
12 | COc1ccc(/C=C/C(=O)c2ccc(Br)s2)cc1 | 100 (≈ 309 µM) | 50 (≈ 155 µM)
13 | OC(Cn1cncn1)(Cn1cncn1)c1ccc(F)cc1F [FLUCONAZOLE] | 100 (≈ 327 µM) | 20 (≈ 65.3 µM)
14 | CSc1ccc(/C=C/C(=O)c2ccccc2O)cc1 | 20 (≈ 74 µM) | 20 (≈ 74 µM)
15 | CSc1ccc(/C=C/C(=O)c2ccc(Cl)cc2)cc1 | 20 (≈ 69.3 µM) | 10 (≈ 34.6 µM)
16 | CSc1ccc(/C=C/C(=O)c2ccc(-c3ccccc3)cc2)cc1 | 250 (≈ 757 µM) | 100 (≈ 303 µM)
17 | COc1ccc(C(=O)/C=C/c2ccc(SC)cc2)cc1 | 20 (≈ 70.3 µM) | 10 (≈ 35.2 µM)
18 | COc1ccc(/C=C/C(=O)c2ccc(Br)s2)cc1OC | 100 (≈ 283 µM) | 50 (≈ 142 µM)
19 | COc1ccc(/C=C/C(=O)c2cccs2)cc1OC | 20 (≈ 72.9 µM) | 10 (≈ 36.5 µM)
20 | O=C(/C=C/c1ccc(-c2ccccc2)cc1)c1cccs1 | 250 (≈ 861 µM) | 100 (≈ 344 µM)
21 | CSc1ccc(/C=C/C(=O)c2ccc(O)cc2)cc1 | 40 (≈ 148 µM) | 20 (≈ 74 µM)
